Earlier results on one substance are cited in paper PMC7172884 (Journal of Molecular Biology, 2006).

Data set [1] deals with T1, HAV 3C (Human hepatitis A virus genotype IB, UniProt P08617).
T1 sequence (P08617 1520-1738 limits assumed): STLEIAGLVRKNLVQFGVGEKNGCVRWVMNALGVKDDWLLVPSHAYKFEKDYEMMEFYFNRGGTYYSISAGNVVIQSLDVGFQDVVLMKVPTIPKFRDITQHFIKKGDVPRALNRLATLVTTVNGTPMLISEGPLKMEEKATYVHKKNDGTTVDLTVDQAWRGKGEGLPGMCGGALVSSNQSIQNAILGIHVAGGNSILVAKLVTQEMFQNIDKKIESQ
Conditions: in vitro, partial viral polyprotein (ΔP1-2A-2B) as substrate.

Data set [2] relates to HAV. Conditions: HAV-infected cells, inhibitor at 5 μM.

“N-acetyl-leucyl-alanyl-alanyl-(N,N-dimethyl)-glutamine-fluoromethylketone [inhibitor Ia]”: the IC50 (usually the concentration at which inhibition is half-maximal) in data set [1] was 41 µM. Further, the “reduction of viral yield” value in data set [2] is given as 25 fold.
